Here are results for 15 molecules from ChEMBL document CHEMBL1139125, “N-Benzyl-N-(tetrahydro-2H-pyran-4-yl)pyrrolidin-3-amines as selective dual serotonin/noradrenaline reuptake inhibitors” (Bioorg Med Chem Lett, 2007).

The nature of series [1]: in vitro. The conditions noted are these: human, liver microsomes. Background: Microsomes from liver hold many membrane-bound enzymes, among them those of drug oxidation.
Series [2] can be described thus: in vitro. The settings on record: human, hepatocytes.

As to `Cc1c(CN(C2CCOCC2)[C@H]2CCNC2)cccc1C(F)(F)F`, the half-life in the series “in vitro [1]” was over 2 h; in the series “in vitro [2]”, over 4 h.

In “in vitro [1]”, `Fc1cccc(CN(C2CCOCC2)[C@H]2CCNC2)c1C(F)(F)F` registered a half-life of over 2 h. With `Cc1cccc(CN(C2CCOCC2)[C@H]2CCNC2)c1Cl`, the half-life was over 2 h in the series “in vitro [1]” and 1.18 h in the series “in vitro [2]”.

In turn, `Cc1cccc(CN(Cc2ccccn2)[C@H]2CCNC2)c1C` returned a half-life in the series “in vitro [1]” of 0.233 h. Same read-out and setting: the result for `Clc1cccc(CN(CC2CC2)[C@H]2CCNC2)c1Cl` reads over 2 h; that for `Cc1cccc(CN(Cc2ccccn2)[C@@H]2CCNC2)c1C`, 0.4 h. On the same count and under the same terms, the result for `Cc1cccc(CN(C2CCOCC2)[C@@H]2CCNC2)c1C` reads over 2 h; that for `FC(F)(F)c1ccccc1CN(C1CCOCC1)[C@H]1CCNC1`, over 2 h; that for `Clc1cccc(CN(Cc2ccccn2)[C@H]2CCNC2)c1Cl`, 1.02 h. For `c1ccc(-c2ccccc2CN(C2CCOCC2)[C@H]2CCNC2)cc1`, the results for the half-life in “in vitro [1]” and in “in vitro [2]” were over 2 h and 1.38 h, respectively. Molecule `Cc1ccccc1CN(C1CCOCC1)[C@H]1CCNC1` registered a half-life in the series “in vitro [1]” of over 2 h. Same read-out and setting: the result for `Clc1cccc(CN(CC2CC2)[C@@H]2CCNC2)c1Cl` reads over 2 h.

As for `Cc1c(Cl)cccc1CN(C1CCOCC1)[C@H]1CCNC1`, the half-life was over 2 h in the series “in vitro [1]” and 1.73 h in “in vitro [2]”. In turn, `COc1cccc(CN(C2CCOCC2)[C@H]2CCNC2)c1C` had a half-life in “in vitro [1]” of 1.57 h. Take `Cc1cccc(CN(C2CCOCC2)[C@H]2CCNC2)c1C`: the half-life in the series “in vitro [1]” was over 2 h.

One may read the half-life as how long it takes for the measured level to halve. Higher therefore signals slow decline.
